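Interpolation was linear, between the two tested concentrations surrounding the appropriate level; five concentrations were tested over 48 hours in 96-well plates. GI50 = concentration required for 50% inhibition of growth.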 Calls of active or inactive are those of the source. Cut-off read from the data, not from the text of the source: active = GI50 up to about 1.1 µM and inactive = higher.
Legend:
Test in all cases: NCI-60 cell line screen, 48 h
[1] = test system: SK-MEL-28
[2] = test system: SN12C
[3] = test system: RXF 393
[4] = test system: SR
[5] = test system: HT-29
[6] = test system: SF-268
[7] = test system: BT-549
[8] = test system: SK-OV-3
[9] = test system: MOLT-4
[10] = test system: CCRF-CEM
[11] = test system: A549
[12] = test system: OVCAR-3
[13] = test system: HOP-62
[14] = test system: RPMI-8226
[15] = test system: HL-60
[16] = test system: NCI-H23
[17] = test system: NCI-H226
[18] = test system: 786-0
[19] = test system: COLO 205
[20] = test system: OVCAR-8
[21] = test system: UACC-62
[22] = test system: TK-10
[23] = test system: MDA-MB-231
[24] = test system: HCT-116
[25] = test system: EKVX
[26] = test system: NCI-H460
[27] = test system: SNB-75
[28] = test system: SF-295
[29] = test system: U-251
[30] = test system: MDA-MB-435
[31] = test system: SK-MEL-5
[32] = test system: CAKI-1
[33] = test system: SW-620
[34] = test system: OVCAR-4
[35] = test system: HOP-92
[36] = test system: Malme-3M
[37] = test system: KM12
[38] = test system: SF-539
[39] = test system: K562
[40] = test system: M14
[41] = test system: UO-31
[42] = test system: DU-145
[43] = test system: NCI/ADR-RES
[44] = test system: UACC-257
[45] = test system: LOX IMVI
[46] = test system: NCI-H522
[47] = test system: PC-3
[48] = test system: SNB-19
[49] = test system: HCT-15
[50] = test system: OVCAR-5
[51] = test system: IGROV-1
[52] = test system: SK-MEL-2
[53] = test system: ACHN
[54] = test system: A498
[55] = test system: MDA-N
[56] = test system: T47D
[57] = test system: MCF7
[58] = test system: HCC 2998
[59] = test system: Hs-578T

Clc1ccc(COc2ccccc2/C=N/c2c(-c3ccco3)nc3ccccn23)c(Cl)c1
GI50 [1]: 66.4 µM (inactive) | GI50 [2]: 25.8 µM (inactive) | GI50 [3]: 20.9 µM (inactive) | GI50 [4]: 10.2 µM (inactive) | GI50 [5]: 31.9 µM (inactive) | GI50 [6]: 39.3 µM (inactive) | GI50 [7]: 30 µM (inactive) | GI50 [8]: > 100 µM (inactive) | GI50 [9]: 31.9 µM (inactive) | GI50 [10]: 12.9 µM (inactive) | GI50 [11]: > 100 µM (inactive) | GI50 [12]: 37.8 µM (inactive) | GI50 [13]: 32.9 µM (inactive) | GI50 [14]: 29.9 µM (inactive) | GI50 [15]: 27 µM (inactive) | GI50 [16]: 32.3 µM (inactive) | GI50 [17]: 25.7 µM (inactive) | GI50 [18]: 28.2 µM (inactive) | GI50 [19]: 38.9 µM (inactive) | GI50 [20]: 26.5 µM (inactive) | GI50 [21]: 33.3 µM (inactive) | GI50 [22]: 36.2 µM (inactive) | GI50 [23]: 20.2 µM (inactive) | GI50 [24]: 17.5 µM (inactive) | GI50 [25]: 17.4 µM (inactive) | GI50 [26]: 71 µM (inactive) | GI50 [27]: 23.4 µM (inactive) | GI50 [28]: 39.9 µM (inactive) | GI50 [29]: 33.7 µM (inactive) | GI50 [30]: 14.5 µM (inactive) | GI50 [31]: 15.8 µM (inactive) | GI50 [32]: 32.5 µM (inactive) | GI50 [33]: 26.2 µM (inactive) | GI50 [34]: 24.9 µM (inactive) | GI50 [35]: 13 µM (inactive) | GI50 [36]: 36.5 µM (inactive) | GI50 [37]: 36.8 µM (inactive) | GI50 [38]: 21.1 µM (inactive) | GI50 [39]: 28.4 µM (inactive) | GI50 [40]: 26.1 µM (inactive) | GI50 [41]: 39.3 µM (inactive) | GI50 [42]: 25.8 µM (inactive) | GI50 [43]: 30.6 µM (inactive) | GI50 [44]: 39.1 µM (inactive) | GI50 [45]: 17.1 µM (inactive) | GI50 [46]: > 100 µM (inactive) | GI50 [47]: 39.8 µM (inactive) | GI50 [48]: 44.1 µM (inactive) | GI50 [49]: 23.3 µM | GI50 [50]: > 100 µM (inactive) | GI50 [51]: 25.2 µM (inactive) | GI50 [52]: 20.2 µM (inactive) | GI50 [53]: > 100 µM (inactive) | GI50 [54]: > 100 µM (inactive) | GI50 [55]: 23 µM (inactive) | GI50 [56]: 24.7 µM (inactive) | GI50 [57]: 12.5 µM (inactive) | GI50 [58]: 95.9 µM (inactive) | GI50 [59]: 36.9 µM (inactive)

From ChEMBL document CHEMBL1201862, “PubChem BioAssay data set” (2004)
